Results published in patent publication US12600725B2 (Memorial Sloan-Kettering Cancer Center, priority 2013, dated 2026).

Assays:
Grp94 = Grp94 (Canis lupus familiaris, UniProt P41148); settings: read-out: Grp94; FP competition, 6 nM Cy3B-GM, 10 nM protein, 4° C. for 24 h
Hsp90α = Hsp90α (Homo sapiens, UniProt P07900); experiment: biochemical; settings: FP competition, 6 nM Cy3B-GM, 10 nM protein, 4° C. for 24 h

Grp94, sequence (P41148 with tags, fused parts or gaps DELINS287-327GGGG): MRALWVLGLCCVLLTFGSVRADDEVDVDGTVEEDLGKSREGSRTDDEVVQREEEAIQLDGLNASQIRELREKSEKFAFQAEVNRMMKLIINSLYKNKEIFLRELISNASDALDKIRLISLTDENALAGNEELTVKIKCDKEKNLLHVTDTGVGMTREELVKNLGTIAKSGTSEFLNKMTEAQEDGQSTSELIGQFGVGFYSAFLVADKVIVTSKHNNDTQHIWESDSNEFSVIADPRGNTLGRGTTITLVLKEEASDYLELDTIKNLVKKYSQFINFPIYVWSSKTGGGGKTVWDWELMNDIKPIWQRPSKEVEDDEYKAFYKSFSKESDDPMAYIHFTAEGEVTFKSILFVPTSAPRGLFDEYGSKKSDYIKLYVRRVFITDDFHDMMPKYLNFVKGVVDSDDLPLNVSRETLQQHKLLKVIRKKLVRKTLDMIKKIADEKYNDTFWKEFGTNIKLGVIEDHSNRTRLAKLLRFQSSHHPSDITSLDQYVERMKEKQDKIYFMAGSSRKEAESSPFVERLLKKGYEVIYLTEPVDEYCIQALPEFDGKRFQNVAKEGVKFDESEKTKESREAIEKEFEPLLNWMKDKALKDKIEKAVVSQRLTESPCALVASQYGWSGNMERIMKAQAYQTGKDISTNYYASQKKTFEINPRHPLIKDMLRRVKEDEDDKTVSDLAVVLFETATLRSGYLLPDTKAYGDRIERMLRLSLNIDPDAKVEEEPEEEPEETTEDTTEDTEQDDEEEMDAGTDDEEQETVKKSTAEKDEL

| IC50 (Grp94) | IC50 (Hsp90α) | Structure (SMILES) |
| --- | --- | --- |
| > 10 µM | > 50 µM | Nc1ncn(CCCC(F)(F)F)c2nc(Sc3cc(Cl)cc(Cl)c3)nc1-2 |
| – | 60.3 µM | C#CCCCn1c(Sc2cc(C#N)cc(C#N)c2)nc2c(N)ncnc21 [HJP-III-26, 5-((6-Amino-9-(pent-4-yn-1-yl)-9H-purin-8-yl)thio)isophthalonitrile] |
| 2.41 µM | 4.51 µM | C#CCCCn1c(Sc2ccc(C#N)c(C(F)(F)F)c2)nc2c(N)ncnc21 [HJP-III-29, 4-((6-Amino-9-(pent-4-yn-1-yl)-9H-purin-8-yl)thio)-2-(trifluoromethyl)benzonitrile] |
| 4.28 µM | 14.3 µM | C#CCCCn1c(Sc2ccc(C#N)c(Br)c2)nc2c(N)ncnc21 [HJP-III-32, 4-((6-Amino-9-(pent-4-yn-1-yl)-9H-purin-8-yl)thio)-2-bromobenzonitrile] |
| 3.45 µM | 7.6 µM | C#CCCCn1c(Sc2ccc(C#N)c(Cl)c2)nc2c(N)ncnc21 [HJP-III-33, 4-((6-Amino-9-(pent-4-yn-1-yl)-9H-purin-8-yl)thio)-2-chlorobenzonitrile] |
| > 5 µM | > 10 µM | C#CCCCn1c(Cc2c(C)cc(C)cc2C)nc2c(N)ncnc21 [HJP-V-36, 9-(Pent-4-yn-1-yl)-8-(2,4,6-trimethylbenzyl)-9H-purin-6-amine] |
| 0.7 µM | > 10 µM | C#CCCCn1c(Cc2ccc(Cl)cc2Cl)nc2c(N)ncnc21 [HJP-V-37, 8-(2,4-Dichlorobenzyl)-9-(pent-4-yn-1-yl)-9H-purin-6-amine] |
| 0.13 to 0.17 µM | > 25 µM | C#CCCCn1c(C(=O)c2ccc(Cl)cc2Cl)nc2c(N)ncnc21 [HJP-V-37T, (6-Amino-9-(pent-4-yn-1-yl)-9H-purin-8-yl)(2,4-dichlorophenyl)methanone] |
| 13.8 µM | 14.4 µM | C#CCCCn1c(Cc2c(Cl)cccc2Cl)nc2c(N)ncnc21 [HJP-V-38, 8-(2,6-Dichlorobenzyl)-9-(pent-4-yn-1-yl)-9H-purin-6-amine] |
| 0.5 µM | > 10 µM | C#CCCCn1c(Cc2cc(Cl)cc(Cl)c2)nc2c(N)ncnc21 [HJP-V-39, 8-(3,5-Dichlorobenzyl)-9-(pent-4-yn-1-yl)-9H-purin-6-amine] |
| – | > 10 µM | C#CCCCn1c(C(=O)c2cc(Cl)cc(Cl)c2)nc2c(N)ncnc21 [HJP-V-39T, (6-Amino-9-(pent-4-yn-1-yl)-9H-purin-8-yl)(3,5-dichlorophenyl)methanone] |
| 0.5 µM | > 10 µM | C#CCCCn1c(Oc2ccc(Cl)cc2Cl)nc2c(N)ncnc21 [HJP-V-45, 8-(2,4-Dichlorophenoxy)-9-(pent-4-yn-1-yl)-9H-purin-6-amine] |
| 0.75 µM | > 10 µM | C#CCCCn1c(Cc2cc(Cl)ccc2Cl)nc2c(N)ncnc21 [HJP-V-54, 8-(2,5-Dichlorobenzyl)-9-(pent-4-yn-1-yl)-9H-purin-6-amine] |
| – | > 10 µM | C#CCCCn1c(Cc2cccc(Cl)c2Cl)nc2c(N)ncnc21 [HJP-V-55, 8-(2,3-Dichlorobenzyl)-9-(pent-4-yn-1-yl)-9H-purin-6-amine] |
| 5.4 µM | 24.1 µM | C#CCCCn1c([S+]([O-])c2ccc(Cl)cc2Cl)nc2c(N)ncnc21 (stereo not drawn) [HJP-V-62M, 8-((2,4-Dichlorophenyl)sulfinyl)-9-(pent-4-yn-1-yl)-9H-purin-6-amine] |
| 4.7 µM | > 25 µM | C#CCCCn1c(S(=O)(=O)c2ccc(Cl)cc2Cl)nc2c(N)ncnc21 [HJP-V-62T, 8-((2,4-Dichlorophenyl)sulfonyl)-9-(pent-4-yn-1-yl)-9H-purin-6-amine] |
| 0.23 µM | 31.3 µM | CC(O)CNCCn1c(Sc2ccc(Cl)cc2Cl)nc2c(N)ncnc21 (stereo not drawn) [HJP-V-82, 1-((2-(6-Amino-8-((2,4-dichlorophenyl)thio)-9H-purin-9-yl)ethyl)amino)propan-2-ol] |
| 0.21 µM | 7.6 µM | CC(CO)NCCn1c(Sc2ccc(Cl)cc2Cl)nc2c(N)ncnc21 (stereo not drawn) [HJP-V-86, 2-((2-(6-Amino-8-((2,4-dichlorophenyl)thio)-9H-purin-9-yl)ethyl)amino)propan-1-ol] |
| 1.9 µM | > 50 µM | Nc1ncnc2c1nc(Sc1ccc(Cl)cc1Cl)n2CCc1ccccn1 [HJP-V-93, 8-((2,4-Dichlorophenyl)thio)-9-(2-(pyridin-2-yl)ethyl)-9H-purin-6-amine] |
| 1.9 µM | > 50 µM | Nc1ncnc2c1nc(Sc1ccc(Cl)cc1Cl)n2CCc1ccccc1F [HJP-V-96, 8-((2,4-Dichlorophenyl)thio)-9-(2-fluorophenethyl)-9H-purin-6-amine] |
| 2.2 µM | 186 µM | Nc1ncnc2c1nc(Sc1ccc(Cl)cc1Cl)n2CCc1ccccc1Cl [HJP-V-97, 9-(2-Chlorophenethyl)-8-((2,4-dichlorophenyl)thio)-9H-purin-6-amine] |
| 0.71 µM | > 50 µM | Nc1ncnc2c1nc(Sc1ccc(Cl)cc1Cl)n2CCc1ccccc1C(F)(F)F [HJP-V-98, 8-((2,4-Dichlorophenyl)thio)-9-(2-(trifluoromethyl)phenethyl)-9H-purin-6-amine] |

| IC50 (Grp94) | IC50 (Hsp90α) | Structure (SMILES) |
| --- | --- | --- |
| 0.35 µM | 5.8 µM | CC(C)NCCCn1c(Sc2cc(Cl)c(Cl)cc2Cl)nc2c(N)ncnc21 [HJP-V-103-N9, 9-(3-(Isopropylamino)propyl)-8-((2,4,5-trichlorophenyl)thio)-9H-purin-6-amine] |
| 1.5 µM | 55.8 µM | C[C@@H](O)CNCCn1c(Sc2ccc(Cl)cc2Cl)nc2c(N)ncnc21 [HJP-V-104, 1(R)-1-((2-(6-Amino-8-((2,4-dichlorophenyl)thio)-9H-purin-9-yl)ethyl)amino)propan-2-ol] |
| 0.35 µM | > 50 µM | C[C@H](O)CNCCn1c(Sc2ccc(Cl)cc2Cl)nc2c(N)ncnc21 [HJP-V-105, 1(S)-1-((2-(6-Amino-8-((2,4-dichlorophenyl)thio)-9H-purin-9-yl)ethyl)amino)propan-2-ol] |
| 0.6 µM | > 50 µM | C#CCN(CCO)CCn1c(Sc2ccc(Cl)cc2Cl)nc2c(N)ncnc21 [HJP-V-110, 2-((2-(6-Amino-8-((2,4-dichlorophenyl)thio)-9H-purin-9-yl)ethyl)(prop-2-yn-1-yl)amino)ethanol] |
| 2.48 µM | > 50 µM | CCCC(C)n1c(Sc2ccc(Cl)cc2Cl)nc2c(N)ncnc21 (stereo not drawn) [HJP-V-114, 8-((2,4-Dichlorophenyl)thio)-9-(pentan-2-yl)-9H-purin-6-amine] |
| 0.12 to 0.3 µM | > 50 µM | Nc1ncnc2c1nc(Sc1ccc(Cl)cc1Cl)n2CCc1cccnc1 [HJP-V-116, 8-((2,4-Dichlorophenyl)thio)-9-(2-(pyridin-3-yl)ethyl)-9H-purin-6-amine] |
| 0.92 µM | – | C#CCC(CC)n1c(Sc2ccc(Cl)cc2Cl)nc2c(N)ncnc21 (stereo not drawn) [HJP-V-117, 8-((2,4-dichlorophenyl)thio)-9-(hex-5-yn-3-yl)-9H-purin-6-amine] |
| 1.03 µM | > 50 µM | Nc1ncnc2c1nc(Sc1ccc(Cl)cc1Cl)n2CCc1ccncc1 [HJP-V-118, 8-((2,4-Dichlorophenyl)thio)-9-(2-(pyridin-4-yl)ethyl)-9H-purin-6-amine] |
| 0.37 µM | 51.7 µM | CC(O)CNCCCn1c(Sc2cc(Cl)cc(Cl)c2)nc2c(N)ncnc21 (stereo not drawn) [HJP-V-130, 1-((3-(6-amino-8-((3,5-dichlorophenyl)thio)-9H-purin-9-yl)propyl)amino)propan-2-ol] |
| 0.81 µM | 26.6 µM | C#CCN(CCO)CCCn1c(Sc2cc(Cl)cc(Cl)c2)nc2c(N)ncnc21 [HJP-V-132, 2-((3-(6-amino-8-((3,5-dichlorophenyl)thio)-9H-purin-9-yl)propyl)(prop-2-yn-1-yl)amino)ethanol] |
| 0.38 µM | > 10 µM | Nc1ncnc2c1nc(Sc1cc(Cl)cc(Cl)c1)n2CCCN1CC(O)C1 [HJP-V-134, 1-(3-(6-amino-8-((3,5-dichlorophenyl)thio)-9H-purin-9-yl)propyl)azetidin-3-ol] |
| 7.9 µM | > 50 µM | Nc1ncnc2c1nc(Sc1cc(Cl)cc(Cl)c1)n2CCc1cccnc1 [HJP-V-140, 8-((3,5-dichlorophenyl)thio)-9-(2-(pyridin-3-yl)ethyl)-9H-purin-6-amine] |
| 0.68 µM | – | CC(C)NCCCn1c(Sc2cc(Cl)cc(Cl)c2I)nc2c(N)ncnc21 [HJP-V-145] |
| 0.86 µM | 72.5 µM | Nc1ncnc2c1nc(Sc1cc(Cl)cc(I)c1)n2CCc1cccnc1 [HJP-V-147, 8-((3-chloro-5-iodophenyl)thio)-9-(2-(pyridin-3-yl)ethyl)-9H-purin-6-amine] |
| 2.7 µM | > 25 µM | COc1ccc(-c2cc(Cl)cc(Sc3nc4c(N)ncnc4n3CCCNC(C)C)c2)cc1 [HJP-VI-3, 8-((5-chloro-4′-methoxy-[1,1′-biphenyl]-3-yl)thio)-9-(3-(isopropylamino)propyl)-9H-purin-6-amine] |
| – | > 50 µM | CC(C)NCCCn1c(Sc2ccc(F)cc2Cl)nc2c(N)ncnc21 [HJP-VI-25, 8-((2-chloro-4-fluorophenyl)thio)-9-(3-(isopropylamino)propyl)-9H-purin-6-amine] |
| – | > 50 µM | CC(C)NCCCn1c(Sc2ccc(Cl)cc2N)nc2c(N)ncnc21 [HJP-VI-34, 8-((2-amino-4-chlorophenyl)thio)-9-(3-(isopropylamino)propyl)-9H-purin-6-amine] |
| – | > 50 µM | CC#Cc1cc(Cl)cc(Sc2nc3c(N)ncnc3n2CCCNC(C)C)c1 [HJP-VI-50, 8-((3-chloro-5-(prop-1-yn-1-yl)phenyl)thio)-9-(3-(isopropylamino)propyl)-9H-purin-6-amine] |
| 0.135 µM | – | CC(C)NCCCn1c(Sc2cc(Cl)cc(Cl)c2)nc2c(N)nc(F)nc21 [HJP-VI-69, 8-((3,5-dichlorophenyl)thio)-2-fluoro-9-(3-(isopropylamino)propyl)-9H-purin-6-amine] |
| 0.124 µM | – | C/C=C(\C)c1cc(Cl)cc(Sc2nc3c(N)ncnc3n2CCCNC(C)C)c1 [HJP-VI-79, (E)-8-((3-(but-2-en-2-yl)-5-chlorophenyl)thio)-9-(3-(isopropylamino)propyl)-9H-purin-6-amine] |
| – | > 100 µM | C#CCCCn1cnc(N)c2nc(Sc3cc(Cl)cc(Cl)c3)nc1-2 [PU-H41] |
